The values that follow are results of earlier work, collected in US4213968A, “Enkephalin derivatives” (priority 1978, dated 1980).

Series [1] relates to brain opiate receptor sites.
Series [2] concerns opiate activity.
Series [3] deals with analgesia in the rat. The conditions noted are these: injected directly into the brain of the rat.

Consider “H-Tyr-Gly-Gly-Phe-Met-OH [methionine enkephalin]”, for which the “binding to partially purified brain opiate receptor sites” value in series [1] was “binds stereospecifically”. In series [2], the “activity in bioassays for opiate activity” value is “very active”. Moreover, the analgesic activity result in series [3] is given as “weak analgesic activity of short duration”.
